Test results from patent US7534809B2, “Phospho-indoles as HIV inhibitors” (priority 2004, dated 2009).
pEC50: −log10 of the molar value. Like-named read-outs stand apart in the source and are kept apart here.

Assays:
HIV mutant strain Y181C = assay: Cell-based assay using BH-10 cells, Y181C mutant
Protocol: (§1) In a typical embodiment, the NNRTIs display an EC50 in a mutant HIV strain of less than approximately 5, 2.5, 1 or 0.1 μM concentration. The degree of cross-resistance against a drug resistant strain of HIV is measured by assessing the EC50 of the desired oxo-pyrimidine compound in the target mutated, i.e., drug resistant, virus.
(§2) The degree of cross-resistance against a drug resistant strain of HIV can easily be measured by assessing the EC50 of the desired indole in the target mutated i.e., drug resistant, virus.

[1] = tested on: HIV mutant strain K103N/Y181C; assay: Cell-based assay using BH-10 cells, K103N/Y181C mutant
Protocol: as §1, §2

HIV BH-10 WT = assay: Cell-based assay using BH-10 cells, wild type
[2] = BH-10 cells, Y181C mutant, read-out: EC50 Y181C
[3] = BH-10 cells, K103N/Y181C mutant, read-out: EC50 K103N/Y181C
[4] = BH-10 cells, wild type, read-out: EC50 WT///B
[5] = Human immunodeficiency virus 1, read-out: EC50 Y181C, BH-10 cells, Y181C mutant
[6] = Human immunodeficiency virus 1, read-out: EC50 K103N/Y181C, BH-10 cells, K103N/Y181C mutant
[7] = Human immunodeficiency virus 1, read-out: EC50 WT///B, BH-10 cells, wild type

## COc1ccccc1P(=O)(OC)c1c(C(N)=O)[nH]c2ccc(Cl)cc12 (stereo not drawn) [Compound 7n]
HIV mutant strain Y181C; [2]
  pEC50: 7.18
[1]; [3]
  pEC50: 8.82
HIV BH-10 WT; [4]
  pEC50: 8.77

## COP(=O)(c1cc(C)cc(C)c1)c1c(C(=O)NCc2c(F)ccc(F)c2F)[nH]c2ccc(Cl)cc12 (stereo not drawn) [CONHCH2(Ph: 2,3,6-tri-F)]
HIV mutant strain Y181C; [2]
  pEC50: 7.77
[1]; [3]
  pEC50: 7.64
HIV BH-10 WT; [4]
  pEC50: 7.75

## COP(=O)(c1cc(C)cc(C)c1)c1c(C(=O)NCc2ccccc2N)[nH]c2ccc(Cl)cc12 (stereo not drawn) [Compound 18n]
HIV mutant strain Y181C; [5]
  pEC50: 7.06
[1]; [6]
  pEC50: 7.64
HIV BH-10 WT; [7]
  pEC50: 7.71

## COP(=O)(c1ccc(F)cc1)c1c(C(N)=O)[nH]c2ccc(Cl)cc12 (stereo not drawn) [Compound 7ak]
HIV mutant strain Y181C; [5]
  pEC50: 7.46
[1]; [6]
  pEC50: 6.33
HIV BH-10 WT; [7]
  pEC50: 8.26

## COP(=O)(c1cc(C)cc(C)c1)c1c(C(N)=O)[nH]c2ccc(Cl)c(F)c12 (stereo not drawn) [Compound 7z]
HIV mutant strain Y181C; [5]
  pEC50: 8.07
[1]; [6]
  pEC50: 8.66
HIV BH-10 WT; [7]
  pEC50: 8.68

## CCCc1cccc(P(=O)(OC)c2c(C(N)=O)[nH]c3ccc(Cl)cc23)c1 (stereo not drawn) [Compound 7x]
HIV mutant strain Y181C; [5]
  pEC50: 7.86
[1]; [6]
  pEC50: 8.06
HIV BH-10 WT; [7]
  pEC50: 8.52

## COP(=O)(c1cc(F)cc(F)c1)c1c(C(=O)NCCC#N)[nH]c2ccc(Cl)cc12 (stereo not drawn) [Compound 59b]
HIV mutant strain Y181C; [5]
  pEC50: 7.16
[1]; [6]
  pEC50: 7.67
HIV BH-10 WT; [7]
  pEC50: 8.46

## COP(=O)(c1cc(F)cc(C#N)c1)c1c(C(N)=O)[nH]c2ccc(Cl)cc12 (stereo not drawn) [Compound 7at]
HIV mutant strain Y181C; [2]
  pEC50: 7.66
[1]; [3]
  pEC50: 7.99
HIV BH-10 WT; [4]
  pEC50: 8.24

## CCOP(=O)(c1ccccc1Cl)c1c(C(N)=O)[nH]c2ccc(Cl)cc12 (stereo not drawn) [Compound 6ai]
HIV mutant strain Y181C; [5]
  pEC50: 6.84
[1]; [6]
  pEC50: 7.76
HIV BH-10 WT; [7]
  pEC50: 8.92

## CCc1ccccc1P(=O)(OC)c1c(C(N)=O)[nH]c2ccc(Cl)cc12 (stereo not drawn) [Compound 7an]
HIV mutant strain Y181C; [5]
  pEC50: 7.30
[1]; [6]
  pEC50: 8.89
HIV BH-10 WT; [7]
  pEC50: 8.54

## CCOP(=O)(c1cccc2ccccc12)c1c(C(N)=O)[nH]c2ccc(Cl)cc12 (stereo not drawn) [Compound 6t]
HIV mutant strain Y181C; [5]
  pEC50: < 5.90
[1]; [6]
  pEC50: < 5.90
HIV BH-10 WT; [7]
  pEC50: 7.49

## CCOP(=O)(c1cccc(F)c1)c1c(C(N)=O)[nH]c2ccc(Cl)cc12 (stereo not drawn) [Compound 6ae]
HIV mutant strain Y181C; [2]
  pEC50: 7.21
[1]; [3]
  pEC50: 7.96
HIV BH-10 WT; [4]
  pEC50: 9.30

## COP(=O)(c1cc(F)cc(F)c1)c1c(C(=O)NCC#N)[nH]c2ccc(Cl)cc12 (stereo not drawn) [Compound 59a]
HIV mutant strain Y181C; [5]
  pEC50: 7.33
[1]; [6]
  pEC50: 8.08
HIV BH-10 WT; [7]
  pEC50: 8.85

## COP(=O)(c1cc(F)cc(Cl)c1)c1c(C(N)=O)[nH]c2ccc(Cl)cc12 (stereo not drawn) [Compound 7v]
HIV mutant strain Y181C; [5]
  pEC50: 7.83
[1]; [6]
  pEC50: 8.64
HIV BH-10 WT; [7]
  pEC50: 9.10

## CCOP(=O)(c1cccc(Cl)c1)c1c(C(N)=O)[nH]c2ccc(Cl)cc12 (stereo not drawn) [Compound 6d]
HIV mutant strain Y181C; [5]
  pEC50: 7.78
[1]; [6]
  pEC50: 7.80
HIV BH-10 WT; [7]
  pEC50: 8.85

## COP(=O)(c1cccc(CF)c1)c1c(C(N)=O)[nH]c2ccc(Cl)cc12 (stereo not drawn) [Compound 7h]
HIV mutant strain Y181C; [5]
  pEC50: 8.21
[1]; [6]
  pEC50: 8.60
HIV BH-10 WT; [7]
  pEC50: 9.05

## COP(=O)(c1cccc(CF)c1)c1c(C(=O)NCc2ccncc2)[nH]c2ccc(Cl)cc12 (stereo not drawn) [Compound 18c]
HIV mutant strain Y181C; [5]
  pEC50: 8.54
[1]; [6]
  pEC50: 8.33
HIV BH-10 WT; [7]
  pEC50: 8.70

## CCOP(=O)(c1cccc(CC)c1)c1c(C(N)=O)[nH]c2ccc(Cl)cc12 (stereo not drawn) [Compound 6e]
HIV mutant strain Y181C; [5]
  pEC50: 7.47
[1]; [6]
  pEC50: 8.92
HIV BH-10 WT; [7]
  pEC50: 8.70

## COc1cccc(P(=O)(OC)c2c(C(=O)NCc3ccco3)[nH]c3ccc(Cl)cc23)c1 (stereo not drawn) [Compound 18au]
HIV mutant strain Y181C; [5]
  pEC50: 8.48
[1]; [6]
  pEC50: 8.22
HIV BH-10 WT; [7]
  pEC50: 9.10

## COP(=O)(c1cccc(C)c1)c1c(C(N)=O)[nH]c2ccc(Cl)cc12 (stereo not drawn) [Compound 7ac]
HIV mutant strain Y181C; [2]
  pEC50: 8.02
[1]; [3]
  pEC50: 8.26
HIV BH-10 WT; [4]
  pEC50: 8.89

## COP(=O)(c1cccc2ccccc12)c1c(C(N)=O)[nH]c2ccc(Cl)cc12 (stereo not drawn) [Compound 7t]
HIV mutant strain Y181C; [5]
  pEC50: 8.24
[1]; [6]
  pEC50: 8.59
HIV BH-10 WT; [7]
  pEC50: 9.22

## COP(=O)(c1cccc(C2CC2)c1)c1c(C(N)=O)[nH]c2ccc(Cl)cc12 (stereo not drawn) [Compound 7aa]
HIV mutant strain Y181C; [5]
  pEC50: 8.15
[1]; [6]
  pEC50: 8.43
HIV BH-10 WT; [7]
  pEC50: 8.66

## COP(=O)(c1cc(C)cc(C)c1)c1c(C(=O)NCc2ccncc2F)[nH]c2ccc(Cl)cc12 (stereo not drawn) [Compound 18h]
HIV mutant strain Y181C; [5]
  pEC50: 7.84
[1]; [6]
  pEC50: 8.37
HIV BH-10 WT; [7]
  pEC50: 8.77

## COP(=O)(c1cccc(/C=C/C#N)c1)c1c(C(N)=O)[nH]c2ccc(Cl)cc12 (stereo not drawn) [Compound 33a]
HIV mutant strain Y181C; [5]
  pEC50: 8.70
[1]; [6]
  pEC50: 8.47
HIV BH-10 WT; [7]
  pEC50: 8.49

## COP(=O)(c1cc(C)cc(C#N)c1)c1c(C(=O)NCc2ccncc2)[nH]c2ccc(Cl)cc12 (stereo not drawn) [Compound 18aaf]
HIV mutant strain Y181C; [5]
  pEC50: 8.41
[1]; [6]
  pEC50: 8.96
HIV BH-10 WT; [7]
  pEC50: 8.74

## COP(=O)(c1cc(C(F)(F)F)cc(C(F)(F)F)c1)c1c(C(N)=O)[nH]c2ccc(Cl)cc12 (stereo not drawn) [Compound 7s]
HIV mutant strain Y181C; [5]
  pEC50: 7.17
[1]; [6]
  pEC50: 7.32
HIV BH-10 WT; [7]
  pEC50: 7.89

## COP(=O)(c1ccccc1)c1c(C(=O)NCN2CCOCC2)[nH]c2ccc(Cl)cc12 (stereo not drawn) [Compound 18aac]
HIV mutant strain Y181C; [5]
  pEC50: 8.00
[1]; [6]
  pEC50: 7.85
HIV BH-10 WT; [7]
  pEC50: 9.30

## C=Cc1cccc(P(=O)(OC)c2c(C(N)=O)[nH]c3ccc(Cl)cc23)c1 (stereo not drawn) [Compound 18aaq]
HIV mutant strain Y181C; [5]
  pEC50: 7.74
[1]; [6]
  pEC50: 7.56
HIV BH-10 WT; [7]
  pEC50: 8.14

## COP(=O)(c1cc(F)cc(Br)c1)c1c(C(N)=O)[nH]c2ccc(Cl)cc12 (stereo not drawn) [Compound 7j]
HIV mutant strain Y181C; [5]
  pEC50: 8.52
[1]; [6]
  pEC50: 8.39
HIV BH-10 WT; [7]
  pEC50: 8.74

## COP(=O)(c1cccc(Cl)c1)c1c(C(N)=O)[nH]c2ccc(Cl)cc12 (stereo not drawn) [Compound 7c]
HIV mutant strain Y181C; [5]
  pEC50: 8.06
[1]; [6]
  pEC50: 8.59
HIV BH-10 WT; [7]
  pEC50: 9.40

## COP(=O)(c1cc(C)cc(C)c1)c1c(C(=O)NCN2CCOCC2)[nH]c2ccc(Cl)cc12 (stereo not drawn) [Compound 18ay]
HIV mutant strain Y181C; [5]
  pEC50: 7.70
[1]; [6]
  pEC50: 8.03
HIV BH-10 WT; [7]
  pEC50: 8.46

## COP(=O)(c1cccs1)c1c(C(N)=O)[nH]c2ccc(Cl)cc12 (stereo not drawn) [Compound 52b]
HIV mutant strain Y181C; [5]
  pEC50: 8.06
[1]; [6]
  pEC50: 8.60
HIV BH-10 WT; [7]
  pEC50: 9.30

## COP(=O)(c1cc(C)cc(C)c1)c1c(C(=O)NCc2ccccn2)[nH]c2ccc(Cl)cc12 (stereo not drawn) [Compound 18aam]
HIV mutant strain Y181C; [5]
  pEC50: 8.17
[1]; [6]
  pEC50: 7.65
HIV BH-10 WT; [7]
  pEC50: 7.76

## COP(=O)(c1cc(C)cc(C)c1)c1c(C(=O)NCc2cc(F)ccc2F)[nH]c2ccc(Cl)cc12 (stereo not drawn) [Compound 18aai]
HIV mutant strain Y181C; [2]
  pEC50: 7.81
[1]; [3]
  pEC50: 7.74
HIV BH-10 WT; [4]
  pEC50: 8.44

## COP(=O)(c1cccc(C(C)(C)C)c1)c1c(C(N)=O)[nH]c2ccc(Cl)cc12 (stereo not drawn) [Compound 7ar]
HIV mutant strain Y181C; [5]
  pEC50: 7.71
[1]; [6]
  pEC50: 7.51
HIV BH-10 WT; [7]
  pEC50: 8.54

## COP(=O)(c1cccc(C)c1)c1c(C(=O)NCc2ccncc2)[nH]c2ccc(Cl)cc12 (stereo not drawn) [Compound 18a]
HIV mutant strain Y181C; [5]
  pEC50: 8.00
[1]; [6]
  pEC50: 8.51
HIV BH-10 WT; [7]
  pEC50: 9.00

## COP(=O)(c1cc(C)cc(C)c1)c1c(C(=O)NCc2ccncn2)[nH]c2ccc(Cl)cc12 (stereo not drawn) [Compound 18l]
HIV mutant strain Y181C; [5]
  pEC50: 8.60
[1]; [6]
  pEC50: 8.66
HIV BH-10 WT; [7]
  pEC50: 8.77

## CCc1cc(C)cc(P(=O)(OC)c2c(C(=O)NCc3ccc[n+]([O-])c3)[nH]c3ccc(Cl)cc23)c1 (stereo not drawn) [Compound 22h]
HIV mutant strain Y181C; [5]
  pEC50: 8.24
[1]; [6]
  pEC50: 8.44
HIV BH-10 WT; [7]
  pEC50: 8.80

## COP(=O)(c1cc(C)cc(C#N)c1)c1c(C(=O)NCc2cc[n+]([O-])cc2)[nH]c2ccc(Cl)cc12 (stereo not drawn) [Compound 22ak]
HIV mutant strain Y181C; [5]
  pEC50: 8.17
[1]; [6]
  pEC50: 7.96
HIV BH-10 WT; [7]
  pEC50: 8.15

## COP(=O)(c1cc(F)cc(F)c1)c1c(C(=O)NCc2cc[n+]([O-])cc2)[nH]c2ccc(Cl)cc12 (stereo not drawn) [Compound 22a]
HIV mutant strain Y181C; [5]
  pEC50: 7.28
[1]; [6]
  pEC50: 7.95
HIV BH-10 WT; [7]
  pEC50: 8.51

## COP(=O)(c1cc(F)cc(F)c1)c1c(C(=O)NCc2ccccc2F)[nH]c2ccc(Cl)cc12 (stereo not drawn) [Compound 18aad]
HIV mutant strain Y181C; [5]
  pEC50: 7.42
[1]; [6]
  pEC50: 7.90
HIV BH-10 WT; [7]
  pEC50: 7.96
